Laboratory results reported in paper PMC5218480 (PLoS ONE, 2017).

Tested on: MV-4-11 cells
Assay: Gene expression microarray analysis (Affymetrix PrimeView) and GSEA
Type: cell-based, human
Design: RFU PODN (11730768_x_at) / Fold change /veh PODN (11730768_x_at) / RFU LINC00158 (11744669_a_at) / Fold change /veh LINC00158 (11744669_a_at) / RFU DUSP10 (11751237_a_at) / Fold change /veh DUSP10 (11751237_a_at) / RFU ID3 (11757404_x_at) / Fold change /veh ID3 (11757404_x_at) / RFU PLEKHG5 (11737974_s_at) / Fold change /veh PLEKHG5 (11737974_s_at) / RFU LRRC4B (11730491_at) / Fold change /veh LRRC4B (11730491_at) / RFU GIMAP4 (11747438_a_at) / Fold change /veh GIMAP4 (11747438_a_at) / RFU KRT8 (11758183_x_at) / Fold change /veh KRT8 (11758183_x_at) / RFU CNN1 (11734310_a_at) / Fold change /veh CNN1 (11734310_a_at) / RFU VPS37D (11726825_at) / Fold change /veh VPS37D (11726825_at) / RFU C10orf10 (11716522_x_at) / Fold change /veh C10orf10 (11716522_x_at) / RFU KIR2DL2 /// KIR2DL4 /// KIR2DL5A /// KIR2DL5B /// KIR2DS1 /// KIR2DS2 /// KIR2DS3 /// KIR2DS4 /// KIR3DL3 /// KIR3DL3 /// KIR3DS1 (11738374_at) / Fold change /veh KIR2DL2 /// KIR2DL4 /// KIR2DL5A /// KIR2DL5B /// KIR2DS1 /// KIR2DS2 /// KIR2DS3 /// KIR2DS4 /// KIR3DL3 /// KIR3DL3 /// KIR3DS1 (11738374_at) / RFU C1QL1 (11718748_at) / Fold change /veh C1QL1 (11718748_at) / RFU TMPRSS4 (11747572_a_at) / Fold change /veh TMPRSS4 (11747572_a_at) / RFU HAMP (11756126_x_at) / Fold change /veh HAMP (11756126_x_at) / RFU RNFT2 (11725882_a_at) / Fold change /veh RNFT2 (11725882_a_at) / RFU NR4A2 (11747474_a_at) / Fold change /veh NR4A2 (11747474_a_at) / RFU ABCC12 (11746883_a_at) / Fold change /veh ABCC12 (11746883_a_at) / RFU TMEM136 (11760407_x_at) / Fold change /veh TMEM136 (11760407_x_at) / RFU CLDN22 /// WWC2 (11732394_at) / Fold change /veh CLDN22 /// WWC2 (11732394_at) / RFU HLA-DPB1 (11760878_x_at) / Fold change /veh HLA-DPB1 (11760878_x_at) / RFU SPINT1 (11716480_a_at) / Fold change /veh SPINT1 (11716480_a_at) / RFU GAP43 (11754022_s_at) / Fold change /veh GAP43 (11754022_s_at) / RFU A4GNT (11735810_at) / Fold change /veh A4GNT (11735810_at) / RFU PRB3 (11715151_x_at) / Fold change /veh PRB3 (11715151_x_at) / RFU TUBB4B (11761932_at) / Fold change /veh TUBB4B (11761932_at) / RFU CAPN14 (11732068_a_at) / Fold change /veh CAPN14 (11732068_a_at) / RFU TMCC2 (11721928_a_at) / Fold change /veh TMCC2 (11721928_a_at) / RFU IRGQ (11745062_a_at) / Fold change /veh IRGQ (11745062_a_at) / RFU FAM174B (11720279_a_at) / Fold change /veh FAM174B (11720279_a_at) / RFU TMPRSS4 (11748680_a_at) / Fold change /veh TMPRSS4 (11748680_a_at) / RFU FAM212B (11763350_a_at) / Fold change /veh FAM212B (11763350_a_at) / RFU PLEKHG5 (11743358_a_at) / Fold change /veh PLEKHG5 (11743358_a_at) / RFU ZSCAN30 (11745921_a_at) / Fold change /veh ZSCAN30 (11745921_a_at) / RFU CMKLR1 (11741424_a_at) / Fold change /veh CMKLR1 (11741424_a_at) / RFU LOC101060620 /// MAPK8IP1 (11723275_at) / Fold change /veh LOC101060620 /// MAPK8IP1 (11723275_at) / RFU SPTSSB (11747773_x_at) / Fold change /veh SPTSSB (11747773_x_at) / RFU PRSS12 (11739890_at) / Fold change /veh PRSS12 (11739890_at) / RFU BIN1 (11741810_x_at) / Fold change /veh BIN1 (11741810_x_at) / RFU WNT11 (11732464_a_at) / Fold change /veh WNT11 (11732464_a_at) / RFU C10orf10 (11716521_a_at) / Fold change /veh C10orf10 (11716521_a_at) / RFU C5orf56 (11738089_at) / Fold change /veh C5orf56 (11738089_at) / RFU CYB561 (11721691_x_at) / Fold change /veh CYB561 (11721691_x_at) / RFU ANKRD19P (11752326_a_at) / Fold change /veh ANKRD19P (11752326_a_at) / RFU OR2T12 /// OR2T33 /// OR2T8 (11738714_s_at) / Fold change /veh OR2T12 /// OR2T33 /// OR2T8 (11738714_s_at) / RFU VCAN (11748164_a_at) / Fold change /veh VCAN (11748164_a_at) / RFU JSRP1 (11732532_at) / Fold change /veh JSRP1 (11732532_at) / RFU KRTAP10-11 (11738290_x_at) / Fold change /veh KRTAP10-11 (11738290_x_at) / RFU MYO3A (11730013_a_at) / Fold change /veh MYO3A (11730013_a_at) / RFU EBF3 (11725865_a_at) / Fold change /veh EBF3 (11725865_a_at) / RFU CAMK2N1 (11719241_x_at) / Fold change /veh CAMK2N1 (11719241_x_at) / RFU C5orf56 (11738088_a_at) / Fold change /veh C5orf56 (11738088_a_at) / RFU OLFML3 (11715873_a_at) / Fold change /veh OLFML3 (11715873_a_at) / RFU LOC100653217 /// NTM (11731650_a_at) / Fold change /veh LOC100653217 /// NTM (11731650_a_at) / RFU MAPK11 (11762145_a_at) / Fold change /veh MAPK11 (11762145_a_at) / RFU FIZ1 (11724087_x_at) / Fold change /veh FIZ1 (11724087_x_at) / RFU OASL (11726364_x_at) / Fold change /veh OASL (11726364_x_at) / RFU SOX15 (11748057_x_at) / Fold change /veh SOX15 (11748057_x_at) / RFU CD79A (11719716_a_at) / Fold change /veh CD79A (11719716_a_at) / RFU HIST1H1D (11736915_at) / Fold change /veh HIST1H1D (11736915_at) / RFU CASKIN2 (11723855_a_at) / Fold change /veh CASKIN2 (11723855_a_at) / RFU LOC730098 (11760151_x_at) / Fold change /veh LOC730098 (11760151_x_at) / RFU OR4N2 (11742367_at) / Fold change /veh OR4N2 (11742367_at) / RFU PRRT2 (11749266_a_at) / Fold change /veh PRRT2 (11749266_a_at) / RFU SNX32 (11753110_a_at) / Fold change /veh SNX32 (11753110_a_at) / RFU CDHR5 (11726645_a_at) / Fold change /veh CDHR5 (11726645_a_at) / RFU RCAN1 (11760418_a_at) / Fold change /veh RCAN1 (11760418_a_at) / RFU FAM167A (11723789_a_at) / Fold change /veh FAM167A (11723789_a_at) / RFU FAM26E (11764081_at) / Fold change /veh FAM26E (11764081_at) / RFU ISYNA1 (11749810_s_at) / Fold change /veh ISYNA1 (11749810_s_at) / RFU ACY1 (11761880_at) / Fold change /veh ACY1 (11761880_at) / RFU 11764098_at / Fold change /veh 11764098_at / RFU SAMD14 (11745864_x_at) / Fold change /veh SAMD14 (11745864_x_at) / RFU NPB (11741838_a_at) / Fold change /veh NPB (11741838_a_at) / RFU TMPRSS6 (11731388_a_at) / Fold change /veh TMPRSS6 (11731388_a_at) / RFU KRTAP10-2 (11738614_at) / Fold change /veh KRTAP10-2 (11738614_at) / RFU ARHGAP8 /// PRR5-ARHGAP8 (11727945_x_at) / Fold change /veh ARHGAP8 /// PRR5-ARHGAP8 (11727945_x_at) / RFU KRTAP5-7 /// NADSYN1 (11734609_at) / Fold change /veh KRTAP5-7 /// NADSYN1 (11734609_at) / RFU RASL12 (11751679_a_at) / Fold change /veh RASL12 (11751679_a_at) / RFU CDKN2B (11736163_a_at) / Fold change /veh CDKN2B (11736163_a_at) / RFU PRF1 (11729649_at) / Fold change /veh PRF1 (11729649_at) / RFU, ZNF638 /// ZNF638-IT1 / Fold change vs veh, ZNF638 /// ZNF638-IT1 / RFU, PANK3 / Fold change vs veh, PANK3 / RFU, SH3YL1 / Fold change vs veh, SH3YL1 / RFU, ZEB2 / Fold change vs veh, ZEB2 / RFU, NRIP1 / Fold change vs veh, NRIP1 / RFU, PTTG1IP / Fold change vs veh, PTTG1IP / RFU, CAPN2 / Fold change vs veh, CAPN2 / RFU, MED14 / Fold change vs veh, MED14 / RFU, SNORA58 / Fold change vs veh, SNORA58 / RFU, C1orf63 / Fold change vs veh, C1orf63 / RFU, LRRFIP1 / Fold change vs veh, LRRFIP1 / RFU, NDUFAF7 / Fold change vs veh, NDUFAF7 / RFU, SLC12A2 / Fold change vs veh, SLC12A2 / RFU, IBTK / Fold change vs veh, IBTK / RFU, ESF1 / Fold change vs veh, ESF1 / Fold change vs veh, TMEM50B / RFU, TAOK1 / Fold change vs veh, TAOK1 / RFU, ACBD3 / Fold change vs veh, ACBD3 / RFU, TMA16 / Fold change vs veh, TMA16 / RFU, RWDD3 / Fold change vs veh, RWDD3 / RFU, BCAT1 / Fold change vs veh, BCAT1 / RFU, EDEM3 / Fold change vs veh, EDEM3 / RFU, TMEM33 / Fold change vs veh, TMEM33 / RFU, WDR75 / Fold change vs veh, WDR75 / RFU, AHCTF1 / Fold change vs veh, AHCTF1 / RFU, TFRC / Fold change vs veh, TFRC / RFU, ZDHHC17 / Fold change vs veh, ZDHHC17 / RFU, NOM1 / Fold change vs veh, NOM1 / RFU, ARL8B / Fold change vs veh, ARL8B / RFU, ZBTB11 / Fold change vs veh, ZBTB11 / RFU, TAMM41 / Fold change vs veh, TAMM41 / RFU, KIAA1704 /// LOC100996395 / Fold change vs veh, KIAA1704 /// LOC100996395 / RFU, ING1 / Fold change vs veh, ING1 / RFU, TRMT61B / Fold change vs veh, TRMT61B / RFU, FUBP3 / Fold change vs veh, FUBP3 / RFU, TP53 / Fold change vs veh, TP53 / RFU, TNKS2 / Fold change vs veh, TNKS2 / RFU, ZFP14 / Fold change vs veh, ZFP14 / RFU, ACTR2 / Fold change vs veh, ACTR2 / RFU, PPP3R1 / Fold change vs veh, PPP3R1 / RFU, PIK3R1 / Fold change vs veh, PIK3R1 / RFU, HNRNPA1 / Fold change vs veh, HNRNPA1 / RFU, RNF170 / Fold change vs veh, RNF170 / RFU, ZNF28 / Fold change vs veh, ZNF28 / RFU, RNGTT / Fold change vs veh, RNGTT / RFU, OGT / Fold change vs veh, OGT / RFU, BRD1 / Fold change vs veh, BRD1 / RFU, MARS / Fold change vs veh, MARS / RFU, ZNF655 / Fold change vs veh, ZNF655 / RFU, FAHD1 / Fold change vs veh, FAHD1 / RFU, BDP1 / Fold change vs veh, BDP1 / RFU, LRRCC1 / Fold change vs veh, LRRCC1 / RFU, ARID1A / Fold change vs veh, ARID1A / RFU, ZNF146 / Fold change vs veh, ZNF146 / RFU, ZNF330 / Fold change vs veh, ZNF330 / RFU, GPN3 / Fold change vs veh, GPN3 / RFU, C9orf123 / Fold change vs veh, C9orf123 / RFU, N4BP2L2 / Fold change vs veh, N4BP2L2 / RFU, ARFIP1 / Fold change vs veh, ARFIP1 / RFU, FAM179B / Fold change vs veh, FAM179B / RFU, BCL10 / Fold change vs veh, BCL10 / RFU, UHRF1BP1L / Fold change vs veh, UHRF1BP1L / RFU, BET1 / Fold change vs veh, BET1 / RFU, CNOT2 / Fold change vs veh, CNOT2 / RFU, ZNF268 / Fold change vs veh, ZNF268 / Fold change vs veh, ZNF507 / RFU, DGCR2 / Fold change vs veh, DGCR2 / RFU, WDSUB1 / Fold change vs veh, WDSUB1 / Fold change vs veh, HSP90B1 /// MIR3652 / RFU, ADSS / Fold change vs veh, ADSS / RFU, GK / Fold change vs veh, GK / RFU, ZNF148 / Fold change vs veh, ZNF148 / RFU, TAF9 / Fold change vs veh, TAF9 / RFU, SLC1A5 / Fold change vs veh, SLC1A5 / RFU, SLMO2 / Fold change vs veh, SLMO2 / RFU, ABCC4 / Fold change vs veh, ABCC4 / RFU, LOC101060439 /// RAP1B / Fold change vs veh, LOC101060439 /// RAP1B / RFU, RFX7 / Fold change vs veh, RFX7 / RFU, GTPBP10 / Fold change vs veh, GTPBP10 / RFU, CNEP1R1 / Fold change vs veh, CNEP1R1 / RFU, BIVM-ERCC5 /// ERCC5 / Fold change vs veh, BIVM-ERCC5 /// ERCC5 / RFU, ILF3 / Fold change vs veh, ILF3 / RFU 11762660_at / Fold change /veh 11762660_at / RFU VCAN (11757783_s_at) / Fold change /veh VCAN (11757783_s_at) / RFU DDX43 (11728927_at) / Fold change /veh DDX43 (11728927_at) / RFU KRT8 (11758188_x_at) / Fold change /veh KRT8 (11758188_x_at) / RFU NKD1 (11759106_at) / Fold change /veh NKD1 (11759106_at) / RFU SRD5A1 (11742802_a_at) / Fold change /veh SRD5A1 (11742802_a_at) / RFU TPSAB1 /// TPSB2 (11721975_s_at) / Fold change /veh TPSAB1 /// TPSB2 (11721975_s_at) / RFU GSTM3 (11746129_a_at) / Fold change /veh GSTM3 (11746129_a_at) / RFU IL23R (11737362_x_at) / Fold change /veh IL23R (11737362_x_at) / RFU TMEM51 (11727254_a_at) / Fold change /veh TMEM51 (11727254_a_at) / RFU PIWIL2 (11732686_x_at) / Fold change /veh PIWIL2 (11732686_x_at) / RFU ORM1 (11744905_x_at) / Fold change /veh ORM1 (11744905_x_at) / RFU CCDC152 (11743942_at) / Fold change /veh CCDC152 (11743942_at) / RFU ECM1 (11717891_a_at) / Fold change /veh ECM1 (11717891_a_at) / RFU IL23R (11748794_a_at) / Fold change /veh IL23R (11748794_a_at) / RFU TNFAIP8L3 (11732012_x_at) / Fold change /veh TNFAIP8L3 (11732012_x_at) / RFU MBOAT4 (11741988_at) / Fold change /veh MBOAT4 (11741988_at) / RFU 11764193_at / Fold change /veh 11764193_at / RFU TMEM53 (11763286_at) / Fold change /veh TMEM53 (11763286_at) / RFU MAGEB2 (11727129_at) / Fold change /veh MAGEB2 (11727129_at) / RFU TMEM200A (11744735_a_at) / Fold change /veh TMEM200A (11744735_a_at) / RFU CCDC152 (11751479_a_at) / Fold change /veh CCDC152 (11751479_a_at) / RFU FAM211A (11726209_a_at) / Fold change /veh FAM211A (11726209_a_at) / RFU RGS16 (11746705_a_at) / Fold change /veh RGS16 (11746705_a_at) / RFU VCAN (11755009_s_at) / Fold change /veh VCAN (11755009_s_at) / RFU RHOB (11743442_s_at) / Fold change /veh RHOB (11743442_s_at) / RFU RGS16 (11720943_a_at) / Fold change /veh RGS16 (11720943_a_at) / RFU RGS16 (11720944_at) / Fold change /veh RGS16 (11720944_at) / RFU, VPS4B / Fold change vs veh, VPS4B / RFU, CREB1 / Fold change vs veh, CREB1 / RFU, DNAJC13 / Fold change vs veh, DNAJC13 / RFU, GNAQ / Fold change vs veh, GNAQ / RFU, CDK5R1 / Fold change vs veh, CDK5R1 / RFU, ZRANB3 / Fold change vs veh, ZRANB3 / RFU, CUL4A / Fold change vs veh, CUL4A / RFU, CCNY / Fold change vs veh, CCNY / RFU, UFL1 / Fold change vs veh, UFL1 / RFU, COG3 / Fold change vs veh, COG3 / RFU, DIAPH2 / Fold change vs veh, DIAPH2 / RFU, SKA2 / Fold change vs veh, SKA2 / RFU, AFF3 / Fold change vs veh, AFF3 / RFU, LMF1 / Fold change vs veh, LMF1 / RFU, IPO11 / Fold change vs veh, IPO11 / RFU, DFFB / Fold change vs veh, DFFB / RFU, FOXP1 / Fold change vs veh, FOXP1 / RFU, CARD8 / Fold change vs veh, CARD8 / RFU, STRN3 / Fold change vs veh, STRN3 / RFU, ADK / Fold change vs veh, ADK / RFU, RASSF2 / Fold change vs veh, RASSF2 / RFU, WIPF1 / Fold change vs veh, WIPF1 / RFU, LARP1B / Fold change vs veh, LARP1B / RFU, RASA1 / Fold change vs veh, RASA1 / RFU, RB1 / Fold change vs veh, RB1 / RFU, PPFIA1 / Fold change vs veh, PPFIA1 / RFU, MAT2A / Fold change vs veh, MAT2A / RFU, CCT5 / Fold change vs veh, CCT5 / RFU, WDR92 / Fold change vs veh, WDR92 / RFU, CUX1 / Fold change vs veh, CUX1 / RFU, TTC7A / Fold change vs veh, TTC7A / RFU, TMEM135 / Fold change vs veh, TMEM135 / RFU, DEPTOR / Fold change vs veh, DEPTOR / RFU, CPM / Fold change vs veh, CPM / RFU, DNAJB6 / Fold change vs veh, DNAJB6 / RFU, CACNA2D3 / Fold change vs veh, CACNA2D3 / RFU, DTX4 / Fold change vs veh, DTX4 / RFU, TFCP2 / Fold change vs veh, TFCP2 / RFU, GMCL1 /// GMCL1P1 / Fold change vs veh, GMCL1 /// GMCL1P1 / RFU, AEBP2 / Fold change vs veh, AEBP2 / RFU, SNHG1 /// SNORD22 /// SNORD25 /// SNORD26 /// SNORD27 /// SNORD28 /// SNORD29 /// SNORD31 / Fold change vs veh, SNHG1 /// SNORD22 /// SNORD25 /// SNORD26 /// SNORD27 /// SNORD28 /// SNORD29 /// SNORD31 / Fold change (Aza/veh), C12orf56 (ProbeSet 11735607_a_at) / Fold change (ACY-1035/veh), C12orf56 (ProbeSet 11735607_a_at) / Fold change (Aza/veh), FGFR1OP (ProbeSet 11751329_s_at) / Fold change (ACY-1035/veh), FGFR1OP (ProbeSet 11751329_s_at) / Fold change (Aza/veh), VPS36 (ProbeSet 11739960_a_at) / Fold change (ACY-1035/veh), VPS36 (ProbeSet 11739960_a_at) / RFU SYPL1 (11715823_x_at) / Fold change /veh SYPL1 (11715823_x_at) / RFU IGFBP7 (11715501_s_at) / Fold change /veh IGFBP7 (11715501_s_at) / RFU REEP3 (11722064_at) / Fold change /veh REEP3 (11722064_at) / RFU IGLL1 (11728026_x_at) / Fold change /veh IGLL1 (11728026_x_at): dose or concentration left out as unconfirmed
Details: MV-4-11 cells, 48 hours

Nc1ncn([C@@H]2O[C@H](CO)[C@@H](O)[C@H]2O)c(=O)n1 [azacitidine] was tested, and the “RFU RGS16 (11720943_a_at)” value was 102.77 RFU.
